Results on three compounds are retold here after patent US10610539B2, “Cardiac glycoside analogs and their use in methods for inhibition of viral infection” (priority 2013, dated 2020).

Assay [1] has as its system Human Foreskin Fibroblasts (HFFs). The format is cell-based. As to conditions: for cell cycle progression after mimosine arrest: HFFs treated with mimosine 48 hours, washed, treated one day. The procedure:
Flow Cytometry: 1×10^5 HFFs from infected-treated or untreated conditions were washed with cold PBS. Cells were suspended in 70% pre-cooled alcohol. Cells were permeabilized in −20° C. for at least 2 hours followed by centrifugation at 5000 rpm for 5 minutes. The supernatants were discarded and cells were washed with cold PBS three times. Cells were re-suspended in 500 ul PBS, propidium iodide was added to a final concentration of 20-50 μg/ml and cells were incubated at room temperature for at least 10 minutes before applying them on flow machine.
The differences between the MTT and trypan blue assay complicated the calculation of antiviral selectivity. […] After 3 day serum starvation cells were released from serum starvation, infected with Towne HCMV and treated with digitoxin or the cardiac glycoside ouabain for 24 hours. HFFs were stained with propidium iodide and subjected to cell cycle analysis by flow cytometry.

The subject of the next assay is Towne HCMV. The note with it: previously reported by the inventors; cited from earlier work.
For another assay, the system named is breast cancer patients. As to conditions: women with breast cancer taking digoxin vs. 34% not taking digitalis; cited from earlier work.
In assay [2] the test system is Herpes Simplex Virus 1 (HSV1). As to conditions: reported; cited from earlier work.

In the case of `Nc1nc(O)c2ncn(COC(CO)CO)c2n1` [GCV, ganciclovir], in assay [1], the “cell cycle progression after mimosine arrest” value was “allowed the cells to normally progress in the cell cycle”.

For `C[C@H]1O[C@@H](O[C@H]2[C@@H](O)C[C@H](O[C@H]3[C@@H](O)C[C@H](O[C@H]4CC[C@@]5(C)[C@H](CC[C@@H]6[C@@H]5C[C@@H](O)[C@]5(C)[C@@H](C7=CC(=O)OC7)CC[C@]65O)C4)O[C@@H]3C)O[C@@H]2C)C[C@H](O)[C@@H]1O` [digoxin], the “inhibition of Towne HCMV replication” value in the assay with Towne HCMV is recorded as “potent inhibitors of Towne HCMV replication”. Also, the death rate with breast cancer patients is listed as 6%. Also, the “inhibition of Herpes Simplex Virus 1 (HSV1)” value in assay [2] was “inhibit Herpes Simplex Virus 1 (HSV1) in nanomolar concentrations”.

Turning to `C[C@@H]1O[C@@H](O[C@H]2C[C@@H](O)[C@]3(CO)[C@H]4[C@H](O)C[C@]5(C)[C@@H](C6=CC(=O)OC6)CC[C@]5(O)[C@@H]4CC[C@]3(O)C2)[C@H](O)[C@H](O)[C@H]1O` [ouabain], the cell cycle progression result in assay [1] (HFFs released from 3 day serum starvation, infected with Towne HCMV, treated 24 hours) is “arrested HFFs in G1”. The “cell cycle progression after mimosine arrest” value in assay [1] is on record as “could not relieve HFFs from cell cycle arrest induced by mimosine”. Besides, the “inhibition of Towne HCMV replication” value with Towne HCMV is “potent inhibitors of Towne HCMV replication”. In addition, the “inhibition of Herpes Simplex Virus 1 (HSV1)” value in assay [2] is reported as “inhibit Herpes Simplex Virus 1 (HSV1) in nanomolar concentrations”.
